Results reported in patent publication US8633206B2, “Pyrrolo[2,3-D]pyrimidine compounds” (Pfizer Inc., priority 2009, dated 2014).

Key:
Assay type in all cases: biochemical
JAK1 = JAK1 (Homo sapiens (Human), UniProt P23458); assay: JAK enzymatic assay (peptide mobility shift), JAK1; conditions: recombinant JAK1 20 nM, IRS-1 peptide, 240 minutes
JAK3 = JAK3 (Homo sapiens (Human), UniProt P52333); assay: JAK enzymatic assay (peptide mobility shift), JAK3; conditions: recombinant JAK3 1 nM, JAKtide peptide, 90 minutes
Sequence of JAK3 (P52333 781-1124): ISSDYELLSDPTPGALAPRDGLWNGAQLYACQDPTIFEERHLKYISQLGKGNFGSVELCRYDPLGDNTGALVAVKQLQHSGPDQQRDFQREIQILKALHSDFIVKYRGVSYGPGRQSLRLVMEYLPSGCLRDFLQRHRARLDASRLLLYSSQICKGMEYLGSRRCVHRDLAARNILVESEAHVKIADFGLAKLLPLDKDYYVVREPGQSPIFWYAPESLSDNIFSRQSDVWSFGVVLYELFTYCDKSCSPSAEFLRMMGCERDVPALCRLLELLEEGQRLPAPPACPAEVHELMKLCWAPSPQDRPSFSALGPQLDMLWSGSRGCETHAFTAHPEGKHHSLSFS

JAK2 = JAK2 (Homo sapiens (Human), UniProt O60674); assay: JAK enzymatic assay (peptide mobility shift), JAK2; conditions: recombinant JAK2 2 nM, JAKtide peptide, 150 minutes
Sequence of JAK2 (O60674 808-1132): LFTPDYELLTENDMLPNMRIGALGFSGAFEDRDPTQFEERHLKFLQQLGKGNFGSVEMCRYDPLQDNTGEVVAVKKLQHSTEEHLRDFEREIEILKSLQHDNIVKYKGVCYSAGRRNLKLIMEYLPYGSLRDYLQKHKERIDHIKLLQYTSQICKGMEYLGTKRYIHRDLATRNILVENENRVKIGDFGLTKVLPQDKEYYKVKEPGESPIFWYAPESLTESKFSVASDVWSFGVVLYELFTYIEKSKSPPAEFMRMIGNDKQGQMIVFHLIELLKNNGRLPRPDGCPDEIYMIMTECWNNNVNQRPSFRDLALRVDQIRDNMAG

Sequence of JAK1 (P23458 whole entry): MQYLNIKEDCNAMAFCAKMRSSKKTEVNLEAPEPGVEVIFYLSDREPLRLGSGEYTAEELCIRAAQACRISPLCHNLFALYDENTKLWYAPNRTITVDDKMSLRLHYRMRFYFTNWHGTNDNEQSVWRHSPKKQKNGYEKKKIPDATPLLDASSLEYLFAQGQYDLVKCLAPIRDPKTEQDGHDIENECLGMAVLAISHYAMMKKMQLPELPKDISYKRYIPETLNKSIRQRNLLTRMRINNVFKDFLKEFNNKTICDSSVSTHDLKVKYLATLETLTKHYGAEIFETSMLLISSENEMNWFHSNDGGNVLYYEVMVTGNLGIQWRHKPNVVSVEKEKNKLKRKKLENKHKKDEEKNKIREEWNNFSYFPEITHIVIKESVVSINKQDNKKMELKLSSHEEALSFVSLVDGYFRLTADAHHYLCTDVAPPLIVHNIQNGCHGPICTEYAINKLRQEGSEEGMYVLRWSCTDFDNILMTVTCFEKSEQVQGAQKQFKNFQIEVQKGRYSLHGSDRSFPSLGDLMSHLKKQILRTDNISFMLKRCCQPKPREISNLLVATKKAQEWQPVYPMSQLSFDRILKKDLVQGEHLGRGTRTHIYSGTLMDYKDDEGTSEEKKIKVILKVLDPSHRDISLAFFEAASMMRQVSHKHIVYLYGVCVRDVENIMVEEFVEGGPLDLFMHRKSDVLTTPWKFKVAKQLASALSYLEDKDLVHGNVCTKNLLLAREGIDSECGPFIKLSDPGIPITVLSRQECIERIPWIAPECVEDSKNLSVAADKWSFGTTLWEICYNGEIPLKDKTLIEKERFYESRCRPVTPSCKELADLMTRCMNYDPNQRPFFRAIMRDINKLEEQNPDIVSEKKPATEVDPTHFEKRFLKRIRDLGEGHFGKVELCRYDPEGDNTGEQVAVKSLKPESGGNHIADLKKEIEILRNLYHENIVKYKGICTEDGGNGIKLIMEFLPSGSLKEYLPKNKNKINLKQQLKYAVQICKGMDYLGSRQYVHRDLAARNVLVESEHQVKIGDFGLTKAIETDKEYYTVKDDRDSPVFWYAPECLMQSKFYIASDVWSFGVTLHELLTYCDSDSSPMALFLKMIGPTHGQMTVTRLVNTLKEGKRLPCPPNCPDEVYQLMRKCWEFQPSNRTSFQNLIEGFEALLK

Row | IC50 (JAK1) | IC50 (JAK3) | IC50 (JAK2) | SMILES
1 | 7.35 nM | 217 nM | 16.7 nM | CN(c1ncnc2[nH]ccc12)[C@H]1CC[C@H](CS(=O)(=O)N2CC[C@@H](F)C2)CC1 [Example 34, N-[trans-4-({[(3R)-3-fluoropyrrolidin-1-yl]sulfonyl}methyl)cyclo-hexyl]-N-methyl-7H-pyrrolo-[2,3-d]pyrimidin-4-amine]
2 | 7.74 nM | 243 nM | 42.1 nM | CN(c1ncnc2[nH]ccc12)[C@H]1CC[C@H](CS(=O)(=O)N2CCC(C)(O)CC2)CC1 [Example 23, 4-methyl-1-[({trans-4-[methyl(7H-pyrrolo[2,3-d]pyrimidin-4-yl)amino]-cyclohexyl}methyl)sulfonyl]-piperidin-4-ol]
3 | 11.9 nM | 468 nM | 41.8 nM | CO[C@@H]1CCN(S(=O)(=O)C[C@H]2CC[C@H](N(C)c3ncnc4[nH]ccc34)CC2)C1 [Example 68, N-[trans-4-({[(3R)-3-methoxypyrrolidin-1-yl]sulfonyl}methyl)cyclo-hexyl]-N-methyl-7H-pyrrolo[2,3-d]pyrimidin-4-amine]
4 | 20.1 nM | 681 nM | 84.8 nM | CN(c1ncnc2[nH]ccc12)[C@H]1CC[C@H](CS(=O)(=O)N2CCC(CC(N)=O)CC2)CC1 [Example 55, 2-{1-[({trans-4-[methyl(7H-pyrrolo[2,3-d]pyrimidin-4-yl)amino]cyclohexyl}-methyl)sulfonyl]piperidin-4-yl}-acetamide]
5 | 10.1 nM | 644 nM | 50.2 nM | CN(C)C(=O)CO[C@@H]1CCN(S(=O)(=O)C[C@H]2CC[C@H](N(C)c3ncnc4[nH]ccc34)CC2)C1 [Example 77, N,N-dimethyl-2-({(3R)-1-[({trans-4-[methyl(7H-pyrrolo[2,3-d]pyrimidin-4-yl)amino]cyclohexyl}-methyl)sulfonyl]pyrrolidin-3-yl}oxy)acetamide]
6 | 11.4 nM | 1920 nM | 126 nM | CC1CN(S(=O)(=O)C[C@H]2CC[C@H](N(C)c3ncnc4[nH]ccc34)CC2)CCN1C (stereo partly drawn) [Example 38, N-(trans-4-{[(3,4-dimethylpiperazin-1-yl)-sulfonyl]methyl}cyclo-hexyl)-N-methyl-7H-pyrrolo-[2,3-d]pyrimidin-4-amine]
7 | 17.3 nM | 495 nM | 55.2 nM | CC[C@@]1(CO)CCN(S(=O)(=O)C[C@H]2CC[C@H](N(C)c3ncnc4[nH]ccc34)CC2)C1 [Example 74, {3-ethyl-1-[({trans-4-[methyl(7H-pyrrolo[2,3-d]-pyrimidin-4-yl)amino]-cyclohexyl}methyl)sulfonyl]-pyrrolidin-3-yl}methanol]
8 | 20.6 nM | 573 nM | 92.2 nM | CN(c1ncnc2[nH]ccc12)[C@H]1CC[C@H](CS(=O)(=O)N2CCC[C@H](CS(C)(=O)=O)C2)CC1 [Example 67, N-methyl-N-{trans-4-[({3-[(methylsulfonyl)methyl]-piperidin-1-yl}sulfonyl)-methyl]cyclohexyl}-7H-pyrrolo[2,3-d]pyrimidin-4-amine]
9 | 8.88 nM | 554 nM | 50.7 nM | CN(c1ncnc2[nH]ccc12)[C@H]1CC[C@H](CS(=O)(=O)N2CCC[C@@](C)(CO)C2)CC1 [Example 63, {3-methyl-1-[({trans-4-[methyl(7H-pyrrolo[2,3-d]-pyrimidin-4-yl)amino]-cyclohexyl}methyl)sulfonyl]piperidin-3-yl}methanol]
10 | 9.55 nM | 370 nM | 56.2 nM | COC[C@H]1CCCN1S(=O)(=O)C[C@H]1CC[C@H](N(C)c2ncnc3[nH]ccc23)CC1 [Example 69, N-[trans-4-({[(2R)-2-(methoxymethyl)pyrrolidin-1-yl]sulfonyl}methyl)-cyclohexyl]-N-methyl-7H-pyrrolo[2,3-d]pyrimidin-4-amine]
11 | 3.2 nM | 175 nM | 18 nM | CN(c1ncnc2[nH]ccc12)[C@H]1CC[C@H](CS(=O)(=O)N2CCC[C@H](O)C2)CC1 [Example 58, 1-[({trans-4-[methyl(7H-pyrrolo[2,3-d]pyrimidin-4-yl)-amino]cyclohexyl}-methyl)sulfonyl]piperidin-3-ol]

Continued, compound first:

Row | SMILES | IC50 (JAK1) | IC50 (JAK3) | IC50 (JAK2)
12 | C[C@@H]1C[C@@H](CS(=O)(=O)N2CCC[C@H](O)C2)CC[C@@H]1N(C)c1ncnc2[nH]ccc12 [Example 131, (3S)-1-[({(1S,3R,4S)-3-methyl-4-[methyl(7H-pyrrolo[2,3-d]pyrimidin-4-yl)amino]cyclohexyl}methyl)-sulfonyl]piperidin-3-ol] | 5.28 nM | 32.5 nM | 12 nM
13 | CN(c1ncnc2[nH]ccc12)[C@H]1CC[C@H](CS(=O)(=O)N2C[C@@H](F)[C@H](F)C2)CC1 [Example 78, N-[trans-4-({[(3R,4R)-3,4-difluoropyrrolidin-1-yl]sulfonyl}methyl)cyclo-hexyl]-N-methyl-7H-pyrrolo[2,3-d]pyrimidin-4-amine] | 13.8 nM | 275 nM | 34.3 nM
14 | CN(c1ncnc2[nH]ccc12)[C@H]1CC[C@H](CS(=O)(=O)N2CC[C@@](O)(Cn3cccn3)C2)CC1 [Example 90, 1-[({trans-4-[methyl(7H-pyrrolo[2,3-d]pyrimidin-4-yl)amino]cyclohexyl}methyl)-sulfonyl]-3-(1H-pyrazol-1-ylmethyl)pyrrolidin-3-ol] | 1.8 nM | 82.3 nM | 9.3 nM
15 | CN(c1ncnc2[nH]ccc12)[C@H]1CC[C@H](CS(=O)(=O)N2CC(S(=O)(=O)CC3CC3)C2)CC1 [Example 116, N-{trans-4-[({3-[(cyclopropylmethyl)-sulfonyl]azetidin-1-yl}sulfonyl)methyl]cyclo-hexyl}-N-methyl-7H-pyrrolo[2,3-d]pyrimidin-4-amine] | 10.7 nM | 298 nM | 49.9 nM
16 | CN(c1ncnc2[nH]ccc12)[C@H]1CC[C@H](CS(=O)(=O)N2CC[C@H](OCC(=O)N3CCCC3)C2)CC1 [Example 98, N-methyl-N-[trans-4-({[3-(2-oxo-2-pyrrolidin-1-ylethoxy)pyrrolidin-1-yl]sulfonyl}methyl)cyclo-hexyl]-7H-pyrrolo[2,3-d]pyrimidin-4-amine] | 4.37 nM | 386 nM | 29.6 nM
17 | CCN1CCN(C[C@H]2CCN(S(=O)(=O)C[C@H]3CC[C@H](N(C)c4ncnc5[nH]ccc45)CC3)C2)C(=O)C1=O [Example 105, 1-ethyl-4-({1-[({trans-4-[methyl(7H-pyrrolo[2,3-d]pyrimidin-4-yl)amino]cyclohexyl}methyl)-sulfonyl]pyrrolidin-3-yl}methyl)piperazine-2,3-dione] | 17.8 nM | 755 nM | 90.4 nM
18 | COCCC1(C(N)=O)CCN(S(=O)(=O)C[C@H]2CC[C@H](N(C)c3ncnc4[nH]ccc34)CC2)CC1 [Example 45, 4-(2-methoxyethyl)-1-[({trans-4-[methyl(7H-pyrrolo[2,3-d]pyrimidin-4-yl)amino]cyclohexyl}-methyl)sulfonyl]piperidine-4-carboxamide] | 1.59 nM | 39.6 nM | 8.97 nM
19 | Cc1cccc(N2CCN(S(=O)(=O)C[C@H]3CC[C@H](N(C)c4ncnc5[nH]ccc45)CC3)CC2)n1 [Example 119, N-methyl-N-[trans-4-({[4-(6-methylpyridin-2-yl)piperazin-1-yl]sulfonyl}-methyl)cyclohexyl]-7H-pyrrolo[2,3-d]pyrimidin-4-amine] | 6.48 nM | 88.9 nM | 13.7 nM
20 | CCN(CC)C(=O)CO[C@@H]1CCN(S(=O)(=O)C[C@H]2CC[C@H](N(C)c3ncnc4[nH]ccc34)CC2)C1 [Example 101, N,N-diethyl-2-({(3R)-1-[({trans-4-[methyl(7H-pyrrolo[2,3-d]pyrimidin-4-yl)amino]cyclohexyl}-methyl)sulfonyl]pyrrolidin-3-yl}oxy)acetamide] | 4.86 nM | 584 nM | 35.9 nM
21 | CN(c1ncnc2[nH]ccc12)[C@H]1CC[C@H](CS(=O)(=O)N2CCN(c3ncccc3C#N)CC2)CC1 [Example 122, 2-{4-[({trans-4-[methyl(7H-pyrrolo[2,3-d]pyrimidin-4-yl)amino]cyclohexyl}-methyl)sulfonyl]piperazin-1-yl}nicotinonitrile] | 12.1 nM | 271 nM | 17.6 nM
22 | CN(C(=O)OC(C)(C)C)[C@H]1CCN(S(=O)(=O)C[C@H]2CC[C@H](N(C)c3ncnc4[nH]ccc34)CC2)C1 [Example 92, tert-butyl methyl{(3S)-1-[({trans-4-[methyl(7H-pyrrolo[2,3-d]pyrimidin-4-yl)amino]cyclohexyl}methyl)-sulfonyl]pyrrolidin-3-yl}carbamate] | 6.91 nM | 488 nM | 81 nM
23 | CN(c1ncnc2[nH]ccc12)[C@H]1CC[C@H](CS(=O)(=O)N2CCCC3(CNC(=O)C3)C2)CC1 (stereo partly drawn) [Example 127, 7-[({trans-4-[methyl(7H-pyrrolo[2,3-d]pyrimidin-4-yl)amino]cyclohexyl}-methyl)sulfonyl]-2,7-diazaspiro[4.5]decan-3-one] | 14.4 nM | 1000 nM | 62.5 nM
24 | CN(c1ncnc2[nH]ccc12)[C@H]1CC[C@H](CS(=O)(=O)N2CC[C@H](S(=O)(=O)CCc3ccccc3)C2)CC1 [Example 83, N-methyl-N-{trans-4-[({3-[(2-phenylethyl)-sulfonyl]pyrrolidin-1-yl}sulfonyl)methyl]cyclo-hexyl}-7H-pyrrolo[2,3-d]pyrimidin-4-amine] | 4.79 nM | 133 nM | 16.7 nM
25 | COc1ccccc1CS(=O)(=O)[C@H]1CCN(S(=O)(=O)C[C@H]2CC[C@H](N(C)c3ncnc4[nH]ccc34)CC2)C1 [Example 89, N-{trans-4-[({3-[(2-methoxybenzyl)sulfonyl]-pyrrolidin-1-yl}sulfonyl)-methyl]cyclohexyl}-N-methyl-7H-pyrrolo[2,3-d]-pyrimidin-4-amine] | 4.45 nM | 96.6 nM | 17.5 nM
